Reference: US20170184604A1, “DD1ALPHA RECEPTOR AND USES THEREOF IN IMMUNE DISORDERS” (THE GENERAL HOSPITAL CORPORATION, priority 2014, published 2017)

Tests used:
[1] = test system: wt- or DD1α−/− mouse CD4+ T cells; assay: Ig fusion protein binding to CD4+ T cells from Wt and DD1α−/− mice
Procedure: FIGS. 6A-6E show physical association of DD1α with PD1 but not with PD-L1. (FIG. 6A) Interaction of DD1α with PD1 or DD1α. […] The bound Ig fusion proteins were detected with anti-Ig-APC. Empty vector (pcDNA3.1)-transfected cells stained with Ig proteins are shown as a negative control (gray filled) and other staining is shown as black open. (FIG. 6B) DD1α binds to both DD1α and PD1 on CD4+ T cells. Purified CD4+ T cells from Wt and DD1α−/− mice were assayed for binding to Ig fused DD1α or PD1 proteins. Cells were incubated with DD1α-Ig (open), PD1-Ig (open), or control Ig proteins (gray filled) and the bound Ig fusion proteins were detected by anti-Ig-APC. […] The bound Ig fusion proteins were detected by anti-Ig-APC. Binding amounts were determined by percentage of APC positive cells compared to control Ig protein-bound cells. (FIG. 6C) Ig-pulldown experiments show DD1α interaction with both DD1α and PD1. […] The bead bound proteins were eluted and determined by western blot analysis using anti-HA antibody (asterisks). […] The bead bound proteins were eluted and detected by western blot analysis with anti-DD1α or anti-PD1 antibody (asterisk). […] The levels of indicated proteins were analyzed by western blot analysis. Total RNAs from control siRNA or p53 siRNA transfected MCF7 cells were assessed for mRNA levels of PD1 or PD-L1 by real-time quantitative PCR. […]

DD1α = assay: Homophilic interaction assay (Ig protein-coated beads on transfected 293T cells); format: binding, human
Procedure: (FIG. 3A) Defective apoptotic cell engulfment of DD1α−/− m-BMDMs. Engulfments of Wt and DD1α−/− apoptotic thymocytes by Wt and DD1α−/− BMDMs were assessed by flow cytometry as described previously. The pHrodo-labeled apoptotic thymocytes were incubated with m-BMDMs for 30 min and the phagocytosis was determined by measuring the positive pHrodo-containing macrophages. Graph represents mean±SD from three independent experiments. (FIG. 3B) Homophilic DD1α interaction. […] The binding was examined under an inverted microscope (left panels) and also determined from the optical density (O.D.) at 492 nm (shown at the right). […] Binding was determined by counting the bound cells per 100 μm^2 and normalized by cell number bound to untreated plate. […] The bead bound His-DD1α (33-194) proteins were eluted and detected by immunoblotting using anti-His antibody. […] DD1α-transfected cells were treated or untreated with 1 mM bis(maleinido)hexane (BMH) for 1 hour, and DD1α protein was analyzed by western blotting under non-reducing condition. […] The phagocytosis of MCF7/DD1α KD cells expressing empty vector (EV), DD1α or DD1α-ΔIgV was determined as in FIG. 2A. […]

PD-L1 = assay: Ig fusion protein staining of 293T transfectants (flow cytometry); format: binding, human; details: cell surface staining

Q: Which “binding to the surface of DD1α−/− CD4+ T cells compared with wt-CD4+ T cells” value [1] does the source give for “DD1α-Ig: the extracellular region of DD1α fused with the immunoglobulin G Fc segment” here?
A: significantly lower

Q: And the “binding to IgV domain-deleted mutant DD1α on the cell surface” value (DD1α; 293 cells transfected with mutant-DD1α (IgV domain-deletion))?
A: abolished this interaction

Q: What about the “binding to complete DD1α proteins expressed on the cell surface” value (DD1α; 293 cells transfected with wt-DD1α) of the same substance?
A: bound

Q: And the “binding to PD-L1 transfectants” value (PD-L1)?
A: not to PD-L1 or TIM-3 transfectants
